Biological target: human ATX (Homo sapiens (Human), UniProt Q13822)
Test: Human ATX enzyme inhibition assay (fluorescence quenching, MR121 substrate)
Format: biochemical
Details: human His-tagged ATX 30 nM, MR121 substrate 1 μM, 30° C.
Experimental: Human ATX Enzyme Inhibition Assay
ATX inhibition was measured by a fluorescence quenching assay using a specifically labeled substrate analogue (MR121 substrate). To obtain this MR121 substrate, BOC and TBS protected 6-amino-hexanoic acid (R)-3-({2-[3-(2-{2-[2-(2-amino-ethoxy)-ethoxy]-ethoxy}-ethoxy)-propionylamino]-ethoxy}-hydroxy-phosphoryloxy)-2-hydroxy-propyl ester (Ferguson et al., Org Lett 2006, 8 (10), 2023) was labeled with MR121 fluorophore (CAS 185308-24-1, 1-(3-carboxypropyl)-11-ethyl-1,2,3,4,8,9,10,11-octahydro-dipyrido[3,2-b:2′,3′-i]phenoxazin-13-ium) on the free amine of the ethanolamine side and then, after deprotection, subsequently with tryptophan on the side of the aminohexanoic acid.
Assay working solutions were made as follows:
Assay buffer (50 mM Tris-HCl, 140 mM NaCl, 5 mM KCl, 1 mM CaCl2, 1 mM MgCl2, 0.01% Triton-X-100, pH 8.0;
ATX solution: ATX (human His-tagged) stock solution (1.08 mg/mL in 20 mM bicine, pH 8.5, 0.15 M NaCl, 10% glycerol, 0.3% CHAPS, 0.02% NaN3), diluted to 1.4-2.5× final concentration in assay buffer;
MR121 substrate solution: MR121 substrate stock solution (800 μM MR121 substrate in DMSO), diluted to 2-5× final concentration in assay buffer.
Test compounds (10 mM stock in DMSO, 8 μL) were obtained in 384 well sample plates (Corning Costar #3655) and diluted with 8 μL DMSO. Row-wise serial dilutions were made by transferring 8 μL cpd solution to the next row up to row O. The compound and control solutions were mixed five times and 2 μL were transferred to 384 well assay plates (Corning Costar #3702). Then, 15 μL of 41.7 nM ATX solution was added (30 nM final concentration), mixed five times and then incubated for 15 minutes at 30° C. 10 μL of MR121 substrate solution was added (1 μM final concentration), mixed 30 times and then incubated for 15 minutes at 30° C.

**Q.** `Cn1c(COc2cc(Cl)c(C#N)cc2-c2cc(Cl)ccc2F)n[nH]c1=O` [Example B93] was tested. Which IC50 did it give?
**A.** 5 nM

**Q.** Which IC50 does the source give for `Cn1c(COc2cc(Cl)c(C#N)cc2-c2cc(F)ccc2F)n[nH]c1=O` [Example B94] here?
**A.** 5 nM

**Q.** With `Cn1c(COc2cc(Cl)c(C#N)cc2-c2cc(OC3CC3)ccc2F)n[nH]c1=O` [Example B95] as the compound, how does the IC50 read?
**A.** 6 nM

**Q.** How did the IC50 turn out when `Cn1c(COc2cc(Cl)c(C#N)cc2-c2cc(C(F)(F)F)ccc2F)n[nH]c1=O` [Example B96] was run?
**A.** 37 nM

**Q.** With `Cn1c(COc2cc(Cl)c(C#N)cc2-c2cc(OC(F)(F)F)ccc2F)n[nH]c1=O` [Example B97, 2-chloro-5-[2-fluoro-5-(trifluoromethoxy)phenyl]-4-[(4-methyl-5-oxo-1H-1,2,4-triazol-3-yl)methoxy]benzonitrile] as the compound, how does the IC50 read?
**A.** 8 nM

**Q.** For `Cn1c(COc2cc(Cl)c(C#N)cc2-c2cc(OCC(F)(F)F)ccc2F)n[nH]c1=O` [Example B98, 2-chloro-5-[2-fluoro-5-(2,2,2-trifluoroethoxy)phenyl]-4-[(4-methyl-5-oxo-1H-1,2,4-triazol-3-yl)methoxy]benzonitrile], which IC50 is on record?
**A.** 9 nM

**Q.** With `Cc1cc(OCc2ccc(=O)[nH]n2)c(C(C)C)cc1Cl` [Example C1, 3-[(4-Chloro-5-methyl-2-propan-2-ylphenoxy)methyl]-1H-pyridazin-6-one] as the compound, how does the IC50 read?
**A.** 19 nM

**Q.** Which IC50 does the source give for `Cc1cc(OCc2ccc(=O)[nH]n2)c(C2CC2)cc1Cl` [Example C2, 3-[(4-Chloro-2-cyclopropyl-5-methylphenoxy)methyl]-1H-pyridazin-6-one] here?
**A.** 22 nM

**Q.** For `CC(C)c1cc(Cl)c(F)cc1OCc1ccc(=O)[nH]n1` [Example C3, 3-[(4-chloro-5-fluoro-2-propan-2-ylphenoxy)methyl]-1H-pyridazin-6-one], which IC50 is on record?
**A.** 4 nM

**Q.** How did the IC50 turn out when `Cc1cc(C(C)C)c(OCc2ccc(=O)[nH]n2)cc1Cl` [Example C4, 3-[(5-chloro-4-methyl-2-propan-2-ylphenoxy)methyl]-1H-pyridazin-6-one] was run?
**A.** 3 nM

**Q.** With `Cc1cc(OCc2ccc(=O)[nH]n2)c(C2CCC2)cc1Cl` [Example C5, 3-[(4-chloro-2-cyclobutyl-5-methylphenoxy)methyl]-1H-pyridazin-6-one] as the compound, how does the IC50 read?
**A.** 1 nM

**Q.** How did the IC50 turn out when `Cc1cc(OCc2ccc(=O)[nH]n2)c(C2CCCCC2)cc1Cl` [Example C6, 3-[(4-chloro-2-cyclohexyl-5-methylphenoxy)methyl]-1H-pyridazin-6-one] was run?
**A.** 7 nM

**Q.** Which IC50 does the source give for `Cc1cc(OCc2ccc(=O)[nH]n2)c(C2CCOCC2)cc1Cl` [Example C7, 3-[[4-chloro-5-methyl-2-(oxan-4-yl)phenoxy]methyl]-1H-pyridazin-6-one] here?
**A.** 22 nM

**Q.** With `Cc1cc(OCc2ccc(=O)[nH]n2)c(C(C)(C)C)cc1Cl` [Example C8, 3-[(2-tert-butyl-4-chloro-5-methylphenoxy)methyl]-1H-pyridazin-6-one] as the compound, how does the IC50 read?
**A.** 5 nM

**Q.** `Cc1cc(OCc2ccc(=O)[nH]n2)c(C(C)(C)C#N)cc1Cl` [Example C9, 2-[5-chloro-4-methyl-2-[(6-oxo-1H-pyridazin-3-yl)methoxy]phenyl]-2-methylpropanenitrile] was tested. Which IC50 did it give?
**A.** 46 nM

**Q.** For `COc1ncccc1-c1cc(Cl)c(C)cc1OCc1ccc(=O)[nH]n1` [Example C10], which IC50 is on record?
**A.** 32 nM

**Q.** How did the IC50 turn out when `Cc1cc(OCc2ccc(=O)[nH]n2)c(-c2cccnc2O)cc1Cl` [Example C11] was run?
**A.** 5980 nM

**Q.** For `N#Cc1cc(-c2ccccc2)c(OCc2ccc(=O)[nH]n2)cc1Cl` [Example C12], which IC50 is on record?
**A.** 3 nM

**Q.** Which IC50 does the source give for `Cc1cc(C(C)(C)C)c(OCc2ccc(=O)[nH]n2)cc1C#N` [Example C13] here?
**A.** 40 nM

**Q.** Which IC50 does the source give for `N#Cc1cc(-c2cc(OC3CC3)ccc2F)c(OCc2ccc(=O)[nH]n2)cc1Cl` [Example C14] here?
**A.** 5 nM

**Q.** With `CC(C)(C)c1cc(S(C)(=O)=O)ccc1OCc1n[nH]c2ccccc12` [Example D1] as the compound, how does the IC50 read?
**A.** 245000 nM

**Q.** `Cc1cc(OCc2n[nH]c3ccccc23)c(C(C)C)cc1Cl` [Example D2, 3-[(4-Chloro-5-methyl-2-propan-2-ylphenoxy)methyl]-1H-indazole] was tested. Which IC50 did it give?
**A.** 14 nM

**Q.** With `Cc1cc(OCc2n[nH]c3ncccc23)c(C(C)(C)C)cc1Cl` [Example D3, 3-[(2-tert-Butyl-4-chloro-5-methylphenoxy)methyl]-1H-pyrazolo[3,4-b]pyridine] as the compound, how does the IC50 read?
**A.** 4 nM

**Q.** How did the IC50 turn out when `Cc1cc(OCc2n[nH]c3ncccc23)c(C(C)(C)C)cc1C#N` [Example D4] was run?
**A.** 9 nM

**Q.** For `Cc1cc(OCc2n[nH]c3ncccc23)c(-c2ccno2)cc1Cl` [Example D5], which IC50 is on record?
**A.** 1 nM

**Q.** How did the IC50 turn out when `Cc1cc(OCc2n[nH]c3nc(F)ccc23)c(C(C)(C)C)cc1Cl` [Example D6, 3-[(2-tert-Butyl-4-chloro-5-methylphenoxy)methyl]-6-fluoro-1H-pyrazolo[3,4-b]pyridine] was run?
**A.** 19 nM

**Q.** Which IC50 does the source give for `Cc1cc(OCc2n[nH]c3nc(NCCO)ccc23)c(C(C)(C)C)cc1Cl` [Example D7, 2-[[3-[(2-tert-Buty-4-chloro-&-methylphenoxy)methyl]-1H-pyrazolo[3,4-b]pyridin-6-yl]amino]ethanol] here?
**A.** 12 nM

**Q.** Which IC50 does the source give for `Cc1cc(OCc2n[nH]c3nc(N(C)CCO)ccc23)c(C(C)(C)C)cc1Cl` [Example D8, 2-[[3-[(2-tert-Butyl-4-chloro-5-methylphenoxy)methyl]-1H-pyrazolo[3,4-b]pyridin-6-yl]-methylamino]ethanol] here?
**A.** 6 nM

**Q.** For `Cc1cc(OCc2n[nH]c3ncccc23)c(C(C)(C)C)cc1S(C)(=O)=O` [Example D9], which IC50 is on record?
**A.** 215 nM

**Q.** How did the IC50 turn out when `Cc1cc(OCc2n[nH]c3ccccc23)c(C(C)(C)C)cc1S(C)(=O)=O` [Example D10] was run?
**A.** > 82000 nM

**Q.** `CC(C)(C)c1cc(Cl)c(F)cc1OCc1n[nH]c2nc(NCCO)ccc12` [Example D11] was tested. Which IC50 did it give?
**A.** 4.5 nM

**Q.** How did the IC50 turn out when `CC(C)(C)c1cc(Cl)c(F)cc1OCc1n[nH]c2nc(F)ccc12` [Example D12] was run?
**A.** 1 nM

**Q.** For `Cc1cc(OCc2n[nH]c3nc(OCCO)ccc23)c(C(C)(C)C)cc1Cl` [Example D13, 2-[[3-[(2-t-Butyl-4-chloro-&-methylphenoxy)methyl]-1H-pyrazolo[3,4-b]pyridin-6-yl]oxy]ethanol], which IC50 is on record?
**A.** 13200 nM

**Q.** For `CN(CCO)c1ccc2c(COc3cc(F)c(Cl)cc3C(C)(C)C)n[nH]c2n1` [Example D14], which IC50 is on record?
**A.** 13 nM

**Q.** Which IC50 does the source give for `Cc1cc(OCc2n[nH]c3nc(OCC(O)CO)ccc23)c(C(C)(C)C)cc1Cl` (stereo not drawn) [Example D15, 3-[[3-[(2-tert-Butyl-4-chloro-5-methylphenoxy)methyl]-1H-pyrazolo[3,4-b]pyridin-6-yl]oxy]propane-1,2-diol] here?
**A.** 6 nM

**Q.** How did the IC50 turn out when `COCCNC(=O)c1cccc(-c2cc(Cl)c(C)cc2OCc2n[nH]c3ncccc23)c1` [Example D16] was run?
**A.** 18 nM

**Q.** Which IC50 does the source give for `Cc1cc(OCc2n[nH]c3ncccc23)c(-c2cccc(C(=O)N3CCOCC3)c2)cc1Cl` [Example D17, [3-[5-Chloro-4-methyl-2-(1H-pyrazolo[3,4-b]pyridin-3-ylmethoxy)phenyl]phenyl]-morpholin-4-ylmethanone] here?
**A.** 2 nM

**Q.** With `Cc1cc(OCc2n[nH]c3ncccc23)c(-c2cccc(C(=O)N(C)C)c2)cc1Cl` [Example D18] as the compound, how does the IC50 read?
**A.** 17 nM

**Q.** For `Cc1cc(OCc2n[nH]c3ncccc23)c(-c2cccc(C(=O)NCCO)c2)cc1Cl` [Example D19], which IC50 is on record?
**A.** 35 nM

**Q.** For `COc1ncccc1-c1cc(Cl)c(C)cc1OCc1n[nH]c2ncccc12` [Example D20], which IC50 is on record?
**A.** 22 nM

**Q.** For `Cc1cc(OCc2n[nH]c3ncccc23)c(-c2cc(C(=O)N(C)C)ccc2F)cc1Cl` [Example D21], which IC50 is on record?
**A.** 9 nM

**Q.** With `Cc1cc(OCc2n[nH]c3ncccc23)c(-c2cc(C(=O)N3CCOCC3)ccc2F)cc1Cl` [Example D22] as the compound, how does the IC50 read?
**A.** 10 nM

**Q.** With `Cc1cc(OCc2n[nH]c3cccnc23)c(C(C)(C)C)cc1Cl` [Example D23] as the compound, how does the IC50 read?
**A.** 21 nM

**Q.** With `Cc1cc(OCc2n[nH]c3cccnc23)c(-c2cccc(C(=O)N(C)C)c2)cc1Cl` [Example D24] as the compound, how does the IC50 read?
**A.** 99 nM

**Q.** `CC(C)(C)c1cc(Cl)c(F)cc1OCc1n[nH]c2cccnc12` [Example D25] was tested. Which IC50 did it give?
**A.** 18 nM

**Q.** How did the IC50 turn out when `Cc1cc(OCc2n[nH]c3nc(N(C)CCO)ncc23)c(C(C)(C)C)cc1Cl` [Example D26, 2-[[3-[(2-tert-Butyl-4-chloro-5-methylphenoxy)methyl]-1H-pyrazolo[3,4-d]pyrimidin-6-yl]-methylamino]ethanol] was run?
**A.** 14 nM

**Q.** Which IC50 does the source give for `Cc1cc(OCc2n[nH]c3nc(N(C)CC(O)CO)ncc23)c(C(C)(C)C)cc1Cl` (stereo not drawn) [Example D27] here?
**A.** 8 nM

**Q.** `Cc1cc(OCc2n[nH]c3cccnc23)c(-c2cc(C(=O)N(C)C)ccc2F)cc1Cl` [Example D28] was tested. Which IC50 did it give?
**A.** 98 nM

**Q.** How did the IC50 turn out when `Cc1cc(OCc2n[nH]c3nc(N4CC(O)C4)ncc23)c(C(C)(C)C)cc1Cl` [Example D29] was run?
**A.** 10 nM

**Q.** How did the IC50 turn out when `Cc1cc(OCc2n[nH]c3nc(NCCO)ncc23)c(C(C)(C)C)cc1Cl` [Example D30] was run?
**A.** 9 nM

**Q.** Which IC50 does the source give for `Cc1cc(OCc2n[nH]c3nc(OCCO)ncc23)c(C(C)(C)C)cc1Cl` [Example D31, 2-[[3-[(2-tert-Butyl-4-chloro-&-methylphenoxy)methyl]-1H-pyrazolo[3,4-d]pyrimidin-6-yl]oxy]ethanol] here?
**A.** 7 nM

— patent publication US11352330B2, “Phenoxymethyl derivatives” (Hoffmann-La Roche Inc., priority 2015, dated 2022)
